Laboratory results taken from US11427604B2 (Mindset Pharma Inc., priority 2020, dated 2022).
Where two headings read alike, the source gives them in different places.

Experiments:
[1] = In vivo pharmacokinetics in male C57BL/6 mice; parameters: species or system mouse; details: for AUC(0-t): read-out: AUC0-tlast; for half-life: read-out: Apparent t1/2 (converted); for MRT inf: read-out: MRT0-inf
Method: Male C57BL/6 mice (25-30 g) and male Sprague-Dawley rats (250-325 g) from Charles River Labs were acclimatized for a minimum of 5 days prior to dosing. Body weights were recorded on the day of dosing.
Animals dosed p.o. were deprived of food overnight and fed ˜2 h following dosing.
Formulations were administered intravenously (i.v.) via the tail vein or orally (p.o.) by gavage with disposable feeding needles.
Serial blood samples were collected via tail snip. Terminal blood samples were collected under isoflurane anesthesia by cardiac puncture.
All blood samples were transferred into K2EDTA tubes on wet ice and centrifuged within 5 min (3200×g for 5 min at 4° C.) to obtain plasma. Plasma was stored at −80° C. until analysis.
Mouse or rat plasma, as applicable.
AB Sciex QTRAP 4000 or 6500 MS/MS system equipped with an LC system with a binary pump, a solvent degasser, a thermostated column compartment and a multiplate autosampler. i. Analysis software: Phoenix® WinNonlin® 8.2 (Pharsight, Certara, Mountainview, Calif.) ii. Analysis methods: non-compartmental analysis, linear up/log down trapezoidal rule iii. PK parameters: C0, t1/2, AUC0-tlast, AUC0-∞, CL, VSS, MRT, tmax(po), Cmax(po), F, as appropriate

[2] = Mouse liver microsomes stability with NADPH
Method: The objective of this study was to estimate in vitro metabolic stability of 1-45 in pooled human and male mouse liver microsomes. The concentrations of exemplary compounds in reaction systems were evaluated by LC-MS/MS for estimating the stability in pooled human and male mouse liver microsomes. The in vitro intrinsic clearances of test compounds were determined as well.
A master solution in the “Incubation Plate” containing phosphate buffer, ultra-pure H2O, MgCl2 solution and liver microsomes was made according to Table --. The mixture was pre-warmed at 37° C. water bath for 5 minutes.
40 μL of 10 mM NADPH solution was added to each well. The final concentration of NADPH was 1 mM. The negative control samples were prepared by replacing NADPH with 40 μL of ultra-pure H2O. Samples were prepared in duplicate. Negative controls were prepared in singlet.
The reaction was started with the addition of 4 μL of 200 μM test compounds or control compounds to each master solution to get the final concentration of 2 μM. This study was performed in duplicate.
Aliquots of 50 μL were taken from the reaction solution at 0, 15, 30, 45 and 60 minutes. The reaction solutions were stopped by the addition of 4 volumes of cold methanol with IS (100 nM alprazolam, 200 nM imipramine, 200 nM labetalol and 2 μM ketoprofen). Samples were centrifuged at 3,220 g for 40 minutes. Aliquot of 90 μL of the supernatant was mixed with 90 μL of ultra-pure H2O and then was used for LC-MS/MS analysis.
LC/MS analysis was performed for all samples from this study using a Shimadzu liquid chromatograph separation system equipped with degasser DGU-20A5R; solvent delivery unit LC-30AD; system controller SIL-30AC; column oven CTO-30A; CTC Analytics HTC PAL System. Mass spectrometric analysis was performed using an Triple Quad™ 5500 instrument.
All calculations were carried out using Microsoft Excel. Peak area ratios of test compound to internal standard (listed in the below table) were determined from extracted ion chromatograms.
All calculations were carried out using Microsoft Excel. Peak areas were determined from extracted ion chromatograms. The slope value, k, was determined by linear regression of the natural logarithm of the remaining percentage of the parent drug vs. incubation time curve.
Conversion of the in vitro t1/2 (min) into the in vitro intrinsic clearance (in vitro CLint, in μL/min/mg proteins) was done using the following equation (mean of duplicate determinations):
[formula] […] Results & Discussion

[3] = Rat liver microsomes stability with NADPH
[4] = mouse, plasma, iv, i.v. 1 mg/kg
[5] = mouse, plasma, po, p.o. 10 mg/kg

Question: Which AUC0-inf/Dose ([1]; i.v. 1 mg/kg) does the source give for `[2H]C([2H])([2H])N(C([2H])([2H])[2H])C([2H])([2H])C([2H])([2H])c1c[nH]c2cccc(O)c12` [Compound I-45, 3-(2-(bis(methyl-d3)amino)ethyl-1,1,2,2-d4)-1H-indol-4-ol] here?
Answer: Its AUC0-inf/Dose is 181 ± 30.8 kg·ng·h/mL/mg.

Question: What about the AUC(0-inf) [1, 4] of the same compound?
Answer: Its AUC(0-inf) is 181 ± 30.8 ng·h/mL.

Question: What about the clearance [1, 4] of the same compound?
Answer: Its clearance is 94 mL/min/kg.

Question: And the AUC(0-t) [1, 4]?
Answer: The AUC(0-t) was 178 ± 32.2 ng·h/mL.

Question: What about the half-life [1, 4] of the same compound?
Answer: The half-life was 5.32 ± 2.99 h.

Question: And the MRT inf [1, 4]?
Answer: Its MRT inf is 1.49 ± 0.536 h.

Question: And the Vd ([1]; mouse, plasma, iv, i.v. 1 mg/kg, read-out: Vss)?
Answer: The Vd was 8.34 ± 3.15 L/kg.

Question: And the AUC(0-inf) [1, 5]?
Answer: The AUC(0-inf) was 795 ± 121 ng·h/mL.

Question: And the Cmax [1, 5]?
Answer: Its Cmax is 704 ± 128 ng/mL.

Question: And the bioavailability [1, 5]?
Answer: The bioavailability was 44 ± 6.7%.

Question: What about the AUC(0-t) [1, 5] of the same compound?
Answer: Its AUC(0-t) is 792 ± 120 ng·h/mL.

Question: And the half-life [1, 5]?
Answer: Its half-life is 4.52 ± 0.481 h.

Question: And the MRT inf [1, 5]?
Answer: The MRT inf was 2 ± 0.227 h.

Question: What about the AUC0-inf/Dose ([1]; p.o. 10 mg/kg) of the same compound?
Answer: The AUC0-inf/Dose was 79.5 ± 12.1 kg·ng·h/mL/mg.

Question: And the Cmax/Dose ([1]; p.o. 10 mg/kg)?
Answer: The Cmax/Dose was 70.4 ± 12.8 kg·ng/mL/mg.

Question: And the “Remaining Percentage (%) after 60 min” value ([2]; Mouse, with NADPH, 2 μM)?
Answer: Its value is 64.91%.

Question: And the half-life at 2 μM ([2]; male, mouse, microsomes)?
Answer: Its half-life at 2 μM is 1.6 h.

Question: And the microsomal CLint at 2 μM ([2]; male, mouse, microsomes)?
Answer: The microsomal CLint at 2 μM was 14.4 µL/min/mg.

Question: And the “Remaining Percentage (%) after 60 min” value ([3]; Rat, with NADPH, 2 μM)?
Answer: Its value is 3.34%.

Question: And the half-life at 2 μM ([3]; rat, microsomes)?
Answer: The half-life at 2 μM was 0.204 h.

Question: And the microsomal CLint at 2 μM ([3]; rat, microsomes)?
Answer: The microsomal CLint at 2 μM was 113 µL/min/mg.
